pIC50: −log10 of the molar value.
experiment: Capability of compound to inhibit the binding of [3H]LTB4 to guinea pig spleen Leukotriene B4 receptors at the concentration of 10e-5 M

Row | pIC50 | Structure (SMILES)
1 | 6.00 | O=C(O)CCCCCCc1ccsc1CCCc1ccccc1

experiment: Capability of compound to inhibit the binding of [3H]LTB4 to guinea pig spleen Leukotriene B4 receptor at the concentration of 10e-5 M

Row | pIC50 | Structure (SMILES)
2 | 6.70 | Cc1cc(CCCc2ccccc2)c(CCCCCC(C)(C)C(=O)O)s1

experiment: Capability to inhibit the binding of [3H]LTB4 to guinea pig spleen Leukotriene B4 receptor at the concentration of 10e-5 M

Row | pIC50 | Structure (SMILES)
3 | 5.00 | O=C(O)CCCCCCc1csc(CCc2ccccc2)c1
4 | 5.00 | O=C(O)CCCCCCc1csc(Cc2ccccc2)c1
5 | 6.00 | O=C(O)CCCCCCc1csc(CCCc2ccc(Cl)cc2)c1
6 | 6.00 | O=C(O)CCCCCCc1ccsc1CCCc1ccc(Cl)cc1
7 | 6.00 | O=C(O)CCCCCCc1sc(-c2ccccc2)cc1CCCc1ccccc1
8 | 6.52 | Cc1cc(CCCCCC(C)C(=O)O)c(CCCc2ccccc2)s1 (stereo not drawn)
9 | 6.52 | Cc1cc(CCCc2ccccc2)c(CCCCCC(C)C(=O)O)s1 (stereo not drawn)
10 | 6.10 | CC(C)(CCCCCc1sc(-c2ccccc2)cc1CCCc1ccccc1)C(=O)O
11 | 6.00 | O=C(O)CCCCCCc1sccc1CCCc1ccccc1
12 | 5.30 | O=C(O)CCCCCCc1csc(CCCc2ccc(O)cc2)c1
13 | 6.96 | CC(CCCCCc1sccc1CCCc1ccccc1)C(=O)O (stereo not drawn)
14 | 5.22 | O=C(O)CCCCCC(O)c1sccc1CCCc1ccccc1 (stereo not drawn)
15 | 5.46 | O=C(O)CCCCc1sccc1CCCc1ccccc1
16 | 5.92 | CC(C)(CCCCCc1cc(-c2ccccc2)sc1CCCc1ccccc1)C(=O)O
17 | 6.15 | Cc1cc(CCCCCCC(=O)O)c(CCCc2ccccc2)s1
18 | 5.52 | Cc1cc(CCCc2ccccc2)c(SCCCCCC(=O)O)s1
